From US10814612B2, “Use of thiazolide compounds for the prevention and treatment of viral diseases, cancer and diseases caused by intracellular infections” (priority 2011, dated 2020)
Read-outs that look alike come from different tables or passages of the source.

Legend:
[1] = test system: CD14+ cells (monocytes); format: cell-based, human
[2] = test system: Type I interferon signalling pathway; assay: Type I interferon pathway Real-time PCR array (84 genes) in PBMC; format: cell-based, human
[3] = test system: CD4+ T cells; assay: T helper functions: IFNγ- and IL2-secreting CD4+ T cells; format: cell-based, human; conditions: for IFN-γ production by CD4+ T cells: 0.5 μg/ml
[4] = test system: CD8+ T cells; assay: CTL activity: perforin-, granzyme- and Fas-expressing CD8+ T cells; format: cell-based, human; conditions: for percentage of Fas-expressing CD8+ T cells: 20 and 40 μg/ml
[5] = test system: RNA and DNA viruses including influenza A and hepatitis C viruses; conditions: cited from earlier work
[6] = humans, cited from earlier work
[7] = test system: rotavirus gastroenteritis, norovirus gastroenteritis and chronic hepatitis C; conditions: clinical trials; cited from earlier work
[8] = test system: Toll-Like Receptor signalling pathway; assay: TLR pathway Real-time PCR array (84 genes) in PBMC; format: cell-based, human; conditions: 3 hours
[9] = PMBCs, TIZ 0.5, 1.0 and 10 mg/ml, FIG. 3A
[10] = after oral nitazoxanide or nitazoxanide plus tizoxanide
[11] = all five doses, unstimulated and flu-stimulated
[12] = flu-stimulated PBMC, all doses tested
[13] = flu-stimulated PBMC, 3 hours, 1 μg/ml

O=C(Nc1ncc([N+](=O)[O-])s1)c1ccccc1O [Tizoxanide]
TLR3- expression on monocytes [1]: increase
TLR7- expression on monocytes [1]: increase
TLR8- expression on monocytes [1]: increase
IFNα-mRNA expression [2, 9]: increase
IFNβ-mRNA expression [2, 9]: increase
mRNA specific for type I IFN inducible genes (MXA, PRKCZ, ADAR, CXCL10, IRF1, PRKRA) ([2]; PMBCs, TIZ 0.5, 1.0 and 10 mg/ml, FIG. 3B): increase
mRNA specific for gene involved in MHC class I presentation (HLA-A, HLA-B, TAP1) ([2]; PMBCs, TIZ 0.5, 1.0 and 10 mg/ml, FIG. 3C): increase
IFNγ-secreting CD4+ T cells ([3]; PMBCs, TIZ 0.5, 1.0 and 10 mg/ml, unstimulated and flu-stimulated, FIG. 4A): increase
IL2-secreting CD4+ T cells ([3]; PMBCs, TIZ 0.5, 1.0 and 10 mg/ml, unstimulated and flu-stimulated, FIG. 4B): increase
CTL degranulation ([4]; PMBCs, TIZ 0.5, 1.0 and 10 mg/ml, FIG. 5B): increase
Fas-expressing CD8+ T cells ([4]; PMBCs, TIZ 0.5, 1.0 and 10 mg/ml, FIG. 5C): increase
replication of RNA and DNA viruses including influenza A and hepatitis C viruses [5]: inhibit replication
half-life in plasma [6, 10]: approximately 1.5 hours
urinary elimination half-life [6, 10]: 7.3 h
plasma protein binding [6]: bound to plasma proteins

CC(=O)Oc1ccccc1C(=O)Nc1ncc([N+](=O)[O-])s1 [Nitazoxanide, 2-(acetolyloxy)-N-(5-nitro-2-thiazolyl) benzamide]
effectiveness in treating chronic hepatitis C [7]: effective
effectiveness in treating norovirus gastroenteritis [7]: effective
effectiveness in treating rotavirus gastroenteritis [7]: effective
replication of RNA and DNA viruses including influenza A and hepatitis C viruses [5]: inhibit replication

O=C(Nc1ncc(Cl)s1)c1ccccc1O [RM-4848, N-(5-chlorothiazol-2-yl)-2-hydroxybenzamide]
TLR3-expressing CD14+ cells [1, 11]: no effect
TLR8-expressing CD14+ cells [1, 11]: no effect
percentage of TLR7-expressing CD14+ cells compared to control ([1]; flu-antigenic stimulation, 1.0 μg/ml dose: p=0.001, 10 μg/ml dose: p=0.023): increase
percentage of TLR7-expressing CD14+ cells compared to control ([1]; unstimulation condition): no significative differences
INFA1 mRNA fold increase ([8]; flu-stimulated PBMC, 1 μg/ml): ~6 fold
INFB1 mRNA fold increase ([8]; flu-stimulated PBMC, 1 μg/ml): ~6 fold
TLR3 mRNA fold increase ([8]; flu-stimulated PBMC, 1 μg/ml): ~7 fold
TLR5 mRNA fold increase ([8]; flu-stimulated PBMC, 1 μg/ml): ~7 fold
TLR9 mRNA fold increase ([8]; flu-stimulated PBMC, 20 μg/ml): ~6 fold
TLR8 mRNA fold change [8, 12]: > 2 fold
TLR-7 mRNA fold change [8, 12]: > 2 fold
IL1A mRNA fold increase ([8]; un-stimulated PBMC, 20 μg/ml): ~5 fold
IL1B mRNA fold increase ([8]; un-stimulated PBMC, 20 μg/ml): ~5 fold
IL6 mRNA fold increase ([8]; un-stimulated PBMC, 20 μg/ml): ~6 fold
IFI27 mRNA fold increase ([2]; flu-stimulated PBMC, 10 μg/ml): > 4 fold
IFIT1 mRNA fold increase ([2]; flu-stimulated PBMC, 10 μg/ml): > 4 fold
IFNA2 mRNA fold increase [2, 13]: 6 fold
INFA1 mRNA fold increase [2, 13]: 10 fold
INFA4 mRNA fold increase [2, 13]: 10 fold
INFB1 mRNA fold increase [2, 13]: 8 fold
expression of the ISGs, IFI27 and IFIT1 ([2]; flu-stimulated PBMC, the three dose levels (1, 10, 20 μg/ml)): moderately up-regulated
Type I IFN inducible genes (CD70, COL16A1, HSPA1L, IFI27, IFIT1, NRG1 and SHB) ([2]; summary of Examples 4-8): upregulated
INFA1 mRNA fold decrease ([2]; un-stimulated PBMC, 20 μg/ml): 20 fold
INFA2 mRNA fold decrease ([2]; un-stimulated PBMC, 20 μg/ml): 15 fold
INFA4 mRNA fold decrease ([2]; un-stimulated PBMC, 20 μg/ml): 10 fold
INFB1 mRNA fold decrease ([2]; un-stimulated PBMC, 20 μg/ml): 15 fold
down-regulating effects on interferon genes ([2]; un-stimulated PBMC, two lower doses of 1 and 10 μg/ml): not seen
IFN-γ production by CD4+ T cells ([3]; Flu-stimulated conditions, p=0.050): statistically significant upregulation
IFN-γ production by CD4+ T cells ([3]; un-stimulated cells, p=0.035): statistically significant upregulation
percentage of Fas-expressing CD8+ T cells ([4]; Flu-stimulated, p=0.003): statistically significantly increased
degranulation of CTLs, evaluated by reduction in perforin expression ([4]; three higher dose levels tested): induced a degranulation
percentage of Fas-expressing CD8+ T cells ([4]; un-stimulated, p=0.006): statistically significantly increased
